What was measured:
[1] = target: T1, Prothrombin (Bos taurus, UniProt P00735); test: (§1) Concentration at which the clotting time was prolonged by twice that of the control by inhibiting thrombin; settings: read-out: I50
[2] = target: T1, Prothrombin; test: as §1; type: functional; settings: read-out: I50

IC50 [1] | IC50 [2] | SMILES
150 nM | – | COc1ccc2ccc(S(=O)(=O)NC(CCCN=C(N)N)C(=O)N3CCC(C)CC3C(=O)O)cc2c1 (stereo unspecified)
> 100000 nM | – | COc1cc2ccc(S(=O)(=O)NC(CCCN=C(N)N)C(=O)N3C(C(=O)O)CCCC3C(=O)O)cc2cc1OC (stereo unspecified)
600 nM | – | CC1CCN(C(=O)C(CCCN=C(N)N)NS(=O)(=O)c2cccc3c2CCCC3)C(C(=O)O)C1 (stereo unspecified)
50000 nM | – | CC(C)C1CCN(C(=O)C(CCCN=C(N)N)NS(=O)(=O)c2ccc3ccccc3c2)C(C(=O)O)C1 (stereo unspecified)
– | 500 nM | CCCC1CCN(C(=O)C(CCCN=C(N)N)NS(=O)(=O)c2ccc3cc(OC)c(OC)cc3c2)C(C(=O)O)C1 (stereo unspecified)
150 nM | – | COc1ccc2ccc(S(=O)(=O)NC(CCCN=C(N)N)C(=O)N(CC(=O)O)CC3CCCO3)cc2c1 (stereo unspecified)
3000 nM | – | Cc1cc2ccc(S(=O)(=O)NC(CCCN=C(N)N)C(=O)N(CC(=O)O)CC3CCCO3)cc2cc1C (stereo unspecified)
150 nM | – | Cc1ccc2ccc(S(=O)(=O)NC(CCCN=C(N)N)C(=O)N3CCC(C)CC3C(=O)O)cc2c1 (stereo unspecified)
40000 nM | – | COc1cc2ccc(S(=O)(=O)NC(CCCN=C(N)N)C(=O)N3CCCC(C(=O)O)C3)cc2cc1OC (stereo unspecified)
350 nM | – | Cc1ccc2cc(S(=O)(=O)NC(CCCN=C(N)N)C(=O)N3CCC(C(C)C)CC3C(=O)O)ccc2c1 (stereo unspecified)
– | 12000 nM | COc1cc2ccc(S(=O)(=O)NC(CCCN=C(N)N)C(=O)N3CCC(c4ccccc4)CC3C(=O)O)cc2cc1OC (stereo unspecified)
150 nM | – | COc1ccc2ccc(S(=O)(=O)NC(CCCN=C(N)N)C(=O)N3CCC(C(C)C)CC3C(=O)O)cc2c1 (stereo unspecified)
500 nM | – | CC(C)C1CCN(C(=O)C(CCCN=C(N)N)NS(=O)(=O)c2ccc3cc(Cl)ccc3c2)C(C(=O)O)C1 (stereo unspecified)
5000 nM | – | COCCN(C(=O)C(CCCN=C(N)N)NS(=O)(=O)c1ccc2cc(OC)c(OC)cc2c1)C(C)C(=O)O (stereo unspecified)
350 nM | – | COCCN(CC(=O)O)C(=O)C(CCCN=C(N)N)NS(=O)(=O)c1ccc2ccc(C)cc2c1 (stereo unspecified)
5000 nM | – | COc1cc2ccc(S(=O)(=O)NC(CCCN=C(N)N)C(=O)N(CC(=O)O)C3CCCCC3)cc2cc1OC (stereo unspecified)
200 nM | – | Cc1ccc2ccc(S(=O)(=O)NC(CCCN=C(N)N)C(=O)N(CC(=O)O)CC3CCCO3)cc2c1 (stereo unspecified)
– | 1500 nM | COc1cc2ccc(S(=O)(=O)NC(CCCN=C(N)N)C(=O)N3Cc4ccccc4C3C(=O)O)cc2cc1OC (stereo unspecified)
300 nM | – | CCCCN(CC(=O)O)C(=O)C(CCCN=C(N)N)NS(=O)(=O)c1ccc2cc(OC)c(OC)cc2c1 (stereo unspecified)
500 nM | – | COCCN(CC(=O)O)C(=O)C(CCCN=C(N)N)NS(=O)(=O)c1ccc2ccc(OC)cc2c1 (stereo unspecified)
500 nM | – | CCCCN(CC(=O)O)C(=O)C(CCCN=C(N)N)NS(=O)(=O)c1ccc2ccc(OC)cc2c1 (stereo unspecified)
– | 100 nM | CC1CCN(C(=O)C(CCCN=C(N)N)NS(=O)(=O)c2ccc3oc4ccccc4c3c2)C(C(=O)O)C1 (stereo unspecified)
– | 250 nM | CCC1CCN(C(=O)C(CCCN=C(N)N)NS(=O)(=O)c2ccc3cc(OC)c(OC)cc3c2)C(C(=O)O)C1 (stereo unspecified)

IC50 [1] | IC50 [2] | SMILES
300 nM | – | CCCCN(CC(=O)O)C(=O)C(CCCN=C(N)N)NS(=O)(=O)c1ccc2ccc(C)cc2c1 (stereo unspecified)
– | 250 nM | CC1CCN(C(=O)C(CCCN=C(N)N)NS(=O)(=O)c2ccc3c(c2)Sc2ccccc2O3)C(C(=O)O)C1 (stereo unspecified)
100 nM | – | CCC1CCN(C(=O)C(CCCN=C(N)N)NS(=O)(=O)c2ccc3ccc(OC)cc3c2)C(C(=O)O)C1 (stereo unspecified)
150000 nM | – | COc1cc2ccc(S(=O)(=O)NC(CCCN=C(N)N)C(=O)N3CCC(C(=O)O)CC3)cc2cc1OC (stereo unspecified)
5000 nM | – | COc1ccc2ccc(S(=O)(=O)NC(CCCN=C(N)N)C(=O)N3CCCCC3C(=O)O)cc2c1 (stereo unspecified)
400 nM | – | COc1cc2ccc(S(=O)(=O)NC(CCCN=C(N)N)C(=O)N3CCC(C)CC3C(=O)O)cc2cc1OC (stereo unspecified)
4000 nM | – | CCOc1cc2ccc(S(=O)(=O)NC(CCCN=C(N)N)C(=O)N3CCC(C)CC3C(=O)O)cc2cc1OCC (stereo unspecified)
200 nM | – | COc1cc2ccc(S(=O)(=O)NC(CCCN=C(N)N)C(=O)N(CC(=O)O)CC3CCCO3)cc2cc1OC (stereo unspecified)
4000 nM | – | CC1CCN(C(=O)C(CCCN=C(N)N)NS(=O)(=O)c2cccc3c(N(C)C)cccc23)C(C(=O)O)C1 (stereo unspecified)
– | 2500 nM | COc1ccc2ccc(S(=O)(=O)NC(CCCN=C(N)N)C(=O)N3CCCCCC3C(=O)O)cc2c1 (stereo unspecified)
1000 nM | – | CC1CCN(C(=O)C(CCCN=C(N)N)NS(=O)(=O)c2cccc3ccccc23)C(C(=O)O)C1 (stereo unspecified)
2000 nM | – | COc1cc2ccc(S(=O)(=O)NC(CCCN=C(N)N)C(=O)N(CC(=O)O)CC(C)C)cc2cc1OC (stereo unspecified)
8000 nM | – | CCCN(CC(=O)O)C(=O)C(CCCN=C(N)N)NS(=O)(=O)c1ccc2cc(OC)c(OC)cc2c1 (stereo unspecified)
100000 nM | – | COc1ccc2cc(S(=O)(=O)NC(CCCN=C(N)N)C(=O)N3CCCCC3C(=O)O)ccc2c1 (stereo unspecified)
– | 150 nM | CC1CCN(C(=O)C(CCCN=C(N)N)NS(=O)(=O)c2cccc3c2oc2ccccc23)C(C(=O)O)C1 (stereo unspecified)
340 nM | – | COc1ccc2cc(S(=O)(=O)NC(CCCN=C(N)N)C(=O)N3CCC(C)CC3C(=O)O)cc(OC)c2c1 (stereo unspecified)
– | 700 nM | COc1cc2ccc(S(=O)(=O)NC(CCCN=C(N)N)C(=O)N3CCc4ccccc4C3C(=O)O)cc2cc1OC (stereo unspecified)
> 100000 nM | – | COc1cc2ccc(S(=O)(=O)NC(CCCN=C(N)N)C(=O)N(C)CC(=O)O)cc2cc1OC (stereo unspecified)
100 nM | – | CC1CCN(C(=O)C(CCCN=C(N)N)NS(=O)(=O)c2ccc3c(c2)-c2ccccc2C3)C(C(=O)O)C1 (stereo unspecified)
> 100000 nM | – | CCCCN(CC(=O)O)C(=O)C(CCCN=C(N)N)NS(=O)(=O)c1ccc2ccccc2c1 (stereo unspecified)
4500 nM | – | COc1cc2ccc(S(=O)(=O)NC(CCCN=C(N)N)C(=O)N3CCCCC3C(=O)O)cc2cc1OC (stereo unspecified)
100 nM | – | Cc1ccc2ccc(S(=O)(=O)NC(CCCN=C(N)N)C(=O)N3CCC(C(C)C)CC3C(=O)O)cc2c1 (stereo unspecified)
500 nM | – | CCCCN(CC(=O)O)C(=O)C(CCCN=C(N)N)NS(=O)(=O)c1ccc2cc(OC)ccc2c1 (stereo unspecified)

The next lines start with the molecule.

SMILES | IC50 [1] | IC50 [2]
CCCCCN(CC(=O)O)C(=O)C(CCCN=C(N)N)NS(=O)(=O)c1ccc2cc(OC)c(OC)cc2c1 (stereo unspecified) | 1000 nM | –
CCCCCN(CC(=O)O)C(=O)C(CCCN=C(N)N)NS(=O)(=O)c1cccc2c1CCCC2 (stereo unspecified) | – | 100000 nM
COc1cc2ccc(S(=O)(=O)NC(CCCN=C(N)N)C(=O)N(CCc3ccccc3)CC(=O)O)cc2cc1OC (stereo unspecified) | 3000 nM | –
CCCCN(CC(=O)O)C(=O)C(CCCN=C(N)N)NS(=O)(=O)c1ccc2oc3ccccc3c2c1 (stereo unspecified) | – | 300 nM
N=C(N)NCCCC(NS(=O)(=O)c1cccc2c1CCCC2)C(=O)N(CC(=O)O)CC1CCCO1 (stereo unspecified) | – | 6500 nM
CCCCN(CC(=O)O)C(=O)C(CCCN=C(N)N)NS(=O)(=O)c1ccc2c(c1)CCCC2 (stereo unspecified) | – | 60000 nM
COCCN(CC(=O)O)C(=O)C(CCCN=C(N)N)NS(=O)(=O)c1cccc2c1CCCC2 (stereo unspecified) | – | 10000 nM
COCCN(CC(=O)O)C(=O)C(CCCN=C(N)N)NS(=O)(=O)c1ccc2sc3ccccc3c2c1 (stereo unspecified) | – | 450 nM
COCCCN(CC(=O)O)C(=O)C(CCCN=C(N)N)NS(=O)(=O)c1ccc2cc(OC)c(OC)cc2c1 (stereo unspecified) | 5000 nM | –
COCCN(CCCC(=O)O)C(=O)C(CCCN=C(N)N)NS(=O)(=O)c1ccc2cc(OC)c(OC)cc2c1 (stereo unspecified) | 40000 nM | –
COCCN(CCC(=O)O)C(=O)C(CCCN=C(N)N)NS(=O)(=O)c1ccc2cc(OC)c(OC)cc2c1 (stereo unspecified) | 3700 nM | –
COCCN(CC(=O)O)C(=O)C(CCCN=C(N)N)NS(=O)(=O)c1ccc2oc3ccccc3c2c1 (stereo unspecified) | – | 350 nM
COc1cc2ccc(S(=O)(=O)NC(CCCN=C(N)N)C(=O)N(CC(=O)O)CC3CCCCC3)cc2cc1OC (stereo unspecified) | 15000 nM | –
COCCN(CC(=O)O)C(=O)C(CCCN=C(N)N)NS(=O)(=O)c1cccc2cc(C)c(C)cc12 (stereo unspecified) | 10000 nM | –
CCCCCCCCN(CC(=O)O)C(=O)C(CCCN=C(N)N)NS(=O)(=O)c1ccc2cc(OC)c(OC)cc2c1 (stereo unspecified) | > 100000 nM | –
COCCN(CC(=O)O)C(=O)C(CCCN=C(N)N)NS(=O)(=O)c1cc(OC)c2cc(OC)ccc2c1 (stereo unspecified) | 4000 nM | –
COc1cc2ccc(S(=O)(=O)NC(CCCN=C(N)N)C(=O)N(CC(=O)O)C3CCCCCC3)cc2cc1OC (stereo unspecified) | 15000 nM | –
COCCN(CC(=O)O)C(=O)C(CCCN=C(N)N)NS(=O)(=O)c1cccc2c(N(C)C)cccc12 (stereo unspecified) | 5000 nM | –

SMILES | IC50 [1] | IC50 [2]
CCCCCCN(CC(=O)O)C(=O)C(CCCN=C(N)N)NS(=O)(=O)c1ccc2cc(OC)c(OC)cc2c1 (stereo unspecified) | 150 nM | –
CCSCCN(CC(=O)O)C(=O)C(CCCN=C(N)N)NS(=O)(=O)c1ccc2cc(OC)c(OC)cc2c1 (stereo unspecified) | 5000 nM | –
CCCCN(CC(=O)O)C(=O)C(CCCN=C(N)N)NS(=O)(=O)c1cccc2c1CCCC2 (stereo unspecified) | – | 20000 nM
COCCN(CC(=O)O)C(=O)C(CCCN=C(N)N)NS(=O)(=O)c1ccc2c(c1)-c1ccccc1C2 (stereo unspecified) | – | 400 nM
CCCCN(CC(=O)O)C(=O)C(CCCN=C(N)N)NS(=O)(=O)c1cccc2c(OC)cccc12 (stereo unspecified) | 4000 nM | –
COCCN(CC(=O)O)C(=O)C(CCCN=C(N)N)NS(=O)(=O)c1ccc2c(c1)OCCO2 (stereo unspecified) | – | 32000 nM
CCOc1cc2ccc(S(=O)(=O)NC(CCCN=C(N)N)C(=O)N(CCOC)CC(=O)O)cc2cc1OCC (stereo unspecified) | 15000 nM | –
N=C(N)NCCCC(NS(=O)(=O)c1cccc2ccccc12)C(=O)N(CC(=O)O)CC1CCCO1 (stereo unspecified) | 30000 nM | –
COCCN(CC(=O)O)C(=O)C(CCCN=C(N)N)NS(=O)(=O)c1ccc2cc3c(cc2c1)OCCO3 (stereo unspecified) | – | 57000 nM
COCCN(CC(=O)O)C(=O)C(CCCN=C(N)N)NS(=O)(=O)c1cccc2c(OC)cccc12 (stereo unspecified) | 2500 nM | –
CCCCN(CC(=O)O)C(=O)C(CCCN=C(N)N)NS(=O)(=O)c1cc(OC)c2cc(OC)ccc2c1 (stereo unspecified) | 2000 nM | –
COCCN(CC(=O)O)C(=O)C(CCCN=C(N)N)NS(=O)(=O)c1ccc2c(c1)Sc1ccccc1O2 (stereo unspecified) | – | 350 nM
COCCN(CC(=O)O)C(=O)C(CCCN=C(N)N)NS(=O)(=O)c1cccc2ccccc12 (stereo unspecified) | 30000 nM | –
COCCN(CC(=O)O)C(=O)C(CCCN=C(N)N)NS(=O)(=O)c1ccc2cc(OC)c(OC)cc2c1 (stereo unspecified) | 300 nM | –
CN(C)c1cccc2c(S(=O)(=O)NC(CCCN=C(N)N)C(=O)N(CC(=O)O)CC3CCCO3)cccc12 (stereo unspecified) | 2000 nM | –
COc1cc2ccc(S(=O)(=O)NC(CCCN=C(N)N)C(=O)N(CC(=O)O)Cc3ccccc3)cc2cc1OC (stereo unspecified) | 2500 nM | –
CCCCN(CC(=O)O)C(=O)C(CCCN=C(N)N)NS(=O)(=O)c1cccc2c(N(C)C)cccc12 (stereo unspecified) | 4000 nM | –

From ChEMBL document CHEMBL1121623, “Thrombin inhibitors. 3. Carboxyl-containing amide derivatives of N alpha-substituted L-arginine” (J Med Chem, 1980)
